Values joined by “and” are separate entries in the source; they are usually repeats but may differ in a detail not shown here. Equal entries are not always repeated. Inconclusive results and toxic doses are left out.
Tested on: BDF1 mice, P388 leukemia ip, median survival T/C
Assay: NCI In Vivo Anticancer Drug Screen. Data for tumor model P388 Leukemia (intraperitoneal) in B6D2F1 (BDF1) mice
Conditions: endpoint: median survival time, higher = longer survival
Procedure, shortened: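 Antitumour effect was judged in vivo: survival in drug-treated mice, normalised to that of vehicle-dosed controls, gives the reported T/C.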

[1] = dose: 50.0 mg/kg/injection, schedule: Q01DX009 (ip), vehicle: saline with Tween-80
[2] = dose: 100.0 mg/kg/injection, schedule: Q01DX009 (ip), vehicle: saline with Tween-80
[3] = dose: 200.0 mg/kg/injection, schedule: Q01DX009 (ip), vehicle: saline with Tween-80

## Nc1ccc2nc3ccc(N)cc3[n+](-c3ccccc3)c2c1
dose: 0.12 mg/kg/injection, schedule: Q01DX009 (ip), vehicle: saline
  T/C: 100 % of control
dose: 0.25 mg/kg/injection, schedule: Q01DX009 (ip), vehicle: saline
  T/C: 110 % of control
dose: 0.5 mg/kg/injection, schedule: Q01DX009 (ip), vehicle: saline
  T/C: 110 % of control
dose: 1.0 mg/kg/injection, schedule: Q03HX024 (ip), vehicle: saline
  T/C: 150 % of control
dose: 1.13 mg/kg/injection, schedule: Q01DX009 (ip), vehicle: saline
  T/C: 116 % of control
dose: 1.56 mg/kg/injection, schedule: Q01DX009 (ip), vehicle: saline
  T/C: 113 % of control
dose: 2.0 mg/kg/injection, schedule: Q01DX009 (sc), vehicle: saline
  T/C: 108 % of control
dose: 2.0 mg/kg/injection, schedule: Q03HX024 (ip), vehicle: saline
  T/C: 155 % of control
dose: 4.0 mg/kg/injection, schedule: Q01DX009 (ip), vehicle: saline
  T/C: 153 % of control
dose: 4.0 mg/kg/injection, schedule: Q01DX009 (sc), vehicle: saline
  T/C: 103 % of control
dose: 4.0 mg/kg/injection, schedule: Q03HX016 (ip), vehicle: saline
  T/C: 153 % of control
dose: 4.0 mg/kg/injection, schedule: Q03HX024 (ip), vehicle: saline
  T/C: 156 % of control
dose: 4.0 mg/kg/injection, schedule: Q04DX003 (sc), vehicle: saline
  T/C: 101 % of control
dose: 6.0 mg/kg/injection, schedule: Q01DX009 (ip), vehicle: saline
  T/C: 166 % of control
dose: 6.25 mg/kg/injection, schedule: Q01DX009 (ip), vehicle: saline
  T/C: 154 % of control
dose: 8.0 mg/kg/injection, schedule: Q01DX009 (ip), vehicle: saline
  T/C: 155 % of control and 173 % of control
dose: 8.0 mg/kg/injection, schedule: Q01DX009 (oral), vehicle: saline
  T/C: 95 % of control
dose: 8.0 mg/kg/injection, schedule: Q01DX009 (sc), vehicle: saline
  T/C: 106 % of control
dose: 8.0 mg/kg/injection, schedule: Q04DX003 (sc), vehicle: saline
  T/C: 103 % of control
dose: 8.0 mg/kg/injection, schedule: Q08DX002 (ip), vehicle: saline
  T/C: 123 % of control
dose: 9.0 mg/kg/injection, schedule: Q01DX009 (ip), vehicle: saline
  T/C: 150 % of control
dose: 9.3 mg/kg/injection, schedule: Q01DX009 (ip), vehicle: saline
  T/C: 154 % of control
dose: 16.0 mg/kg/injection, schedule: Q01DX009 (ip), vehicle: saline
  T/C: 182 % of control
dose: 16.0 mg/kg/injection, schedule: Q01DX009 (oral), vehicle: saline
  T/C: 105 % of control
dose: 16.0 mg/kg/injection, schedule: Q01DX009 (sc), vehicle: saline
  T/C: 96 % of control
dose: 16.0 mg/kg/injection, schedule: Q04DX003 (oral), vehicle: saline
  T/C: 99 % of control
dose: 16.0 mg/kg/injection, schedule: Q04DX003 (sc), vehicle: saline
  T/C: 106 % of control
dose: 16.0 mg/kg/injection, schedule: Q08DX002 (ip), vehicle: saline
  T/C: 122 % of control
dose: 18.0 mg/kg/injection, schedule: Q01DX009 (ip), vehicle: saline
  T/C: 154 % of control and 168 % of control and 195 % of control
dose: 25.0 mg/kg/injection, schedule: Q04DX003 (ip), vehicle: saline
  T/C: 175 % of control
dose: 32.0 mg/kg/injection, schedule: Q01DX009 (oral), vehicle: saline
  T/C: 99 % of control
dose: 32.0 mg/kg/injection, schedule: Q01DX009 (sc), vehicle: saline
  T/C: 105 % of control
dose: 32.0 mg/kg/injection, schedule: Q04DX003 (ip), vehicle: saline
  T/C: 156 % of control
dose: 32.0 mg/kg/injection, schedule: Q04DX003 (oral), vehicle: saline
  T/C: 105 % of control
dose: 32.0 mg/kg/injection, schedule: Q04DX003 (sc), vehicle: saline
  T/C: 97 % of control
dose: 33.0 mg/kg/injection, schedule: Q04DX003 (ip), vehicle: saline
  T/C: 150 % of control and 170 % of control
dose: 50.0 mg/kg/injection, schedule: Q04DX003 (ip), vehicle: saline
  T/C: 175 % of control and 180 % of control
dose: 64.0 mg/kg/injection, schedule: Q01DX009 (oral), vehicle: saline
  T/C: 102 % of control
dose: 64.0 mg/kg/injection, schedule: Q04DX003 (oral), vehicle: saline
  T/C: 101 % of control
dose: 64.0 mg/kg/injection, schedule: Q04DX003 (sc), vehicle: saline
  T/C: 101 % of control
dose: 75.0 mg/kg/injection, schedule: Q04DX003 (ip), vehicle: saline
  T/C: 165 % of control
dose: 128.0 mg/kg/injection, schedule: Q01DX009 (oral), vehicle: saline
  T/C: 107 % of control
dose: 128.0 mg/kg/injection, schedule: Q04DX003 (oral), vehicle: saline
  T/C: 101 % of control
dose: 256.0 mg/kg/injection, schedule: Q04DX003 (oral), vehicle: saline
  T/C: 100 % of control

## CCOC(=O)C(C(=O)OCC)=C(C)OCC
dose: 6.25 mg/kg/injection, schedule: Q01DX009 (ip), vehicle: saline with Tween-80
  T/C: 106 % of control
dose: 12.5 mg/kg/injection, schedule: Q01DX009 (ip), vehicle: saline with Tween-80
  T/C: 86 % of control
dose: 25.0 mg/kg/injection, schedule: Q01DX009 (ip), vehicle: saline with Tween-80
  T/C: 97 % of control
dose: 25.0 mg/kg/injection, schedule: Q04DX003 (ip), vehicle: saline with Tween-80
  T/C: 99 % of control
[1]
  T/C: 97 % of control
dose: 50.0 mg/kg/injection, schedule: Q04DX003 (ip), vehicle: saline with Tween-80
  T/C: 107 % of control
[2]
  T/C: 106 % of control
dose: 100.0 mg/kg/injection, schedule: Q04DX003 (ip), vehicle: saline with Tween-80
  T/C: 90 % of control
dose: 200.0 mg/kg/injection, schedule: Q04DX003 (ip), vehicle: saline with Tween-80
  T/C: 107 % of control

## Cc1cc2c(c(O)c1-c1c(C)cc(O)c3c1C(=O)C=CC3=O)C(=O)C=CC2=O
dose: 1.25 mg/kg/injection, schedule: Q01DX009 (ip), vehicle: saline with Tween-80
  T/C: 107 % of control
dose: 2.5 mg/kg/injection, schedule: Q01DX009 (ip), vehicle: saline with Tween-80
  T/C: 114 % of control
dose: 5.0 mg/kg/injection, schedule: Q01DX009 (ip), vehicle: saline with Tween-80
  T/C: 103 % of control

## COc1cccc2c1C(=O)c1c(O)c3c(c(O)c1C2=O)C[C@@](O)(C(=O)CO)C[C@@H]3OC1CC(NC(=O)CN)C(O)C(C)O1 (stereo not given in full)
dose: 1.56 mg/kg/injection, schedule: Q01DX009 (ip), vehicle: other
  T/C: 108 % of control
dose: 3.13 mg/kg/injection, schedule: Q01DX009 (ip), vehicle: other
  T/C: 110 % of control
dose: 6.25 mg/kg/injection, schedule: Q01DX009 (ip), vehicle: other
  T/C: 105 % of control
dose: 12.5 mg/kg/injection, schedule: Q01DX009 (ip), vehicle: other
  T/C: 99 % of control
dose: 25.0 mg/kg/injection, schedule: Q01DX009 (ip), vehicle: other
  T/C: 114 % of control

## NC(Cc1c[nH]c2cc(N(CCCl)CCCl)ccc12)C(=O)O (stereo not given)
dose: 0.75 mg/kg/injection, schedule: Q01DX009 (sc), vehicle: olive oil, sesame oil, peanut oil
  T/C: 115 % of control
dose: 1.5 mg/kg/injection, schedule: Q01DX009 (sc), vehicle: olive oil, sesame oil, peanut oil
  T/C: 123 % of control
dose: 1.5 mg/kg/injection, schedule: Q04DX003 (sc), vehicle: olive oil, sesame oil, peanut oil
  T/C: 113 % of control
dose: 3.0 mg/kg/injection, schedule: Q01DX009 (sc), vehicle: olive oil, sesame oil, peanut oil
  T/C: 100 % of control
dose: 3.0 mg/kg/injection, schedule: Q04DX003 (sc), vehicle: olive oil, sesame oil, peanut oil
  T/C: 177 % of control
dose: 4.5 mg/kg/injection, schedule: Q04DX003 (sc), vehicle: olive oil, sesame oil, peanut oil
  T/C: 162 % of control
dose: 6.0 mg/kg/injection, schedule: Q04DX003 (sc), vehicle: olive oil, sesame oil, peanut oil
  T/C: 154 % of control

## CN(C)c1ccc(/C=C/c2ccnc3ccc(Cl)cc23)cc1
[1]
  T/C: 100 % of control
[3]
  T/C: 100 % of control

## c1ccc2c(NCCCCCCCCNc3c4ccccc4nc4ccccc34)c3ccccc3nc2c1
dose: 2.5 mg/kg/injection, schedule: Q01DX009 (ip), vehicle: Klucel (hydroxypropylcellulose) (HPC)
  T/C: 112 % of control
dose: 20.0 mg/kg/injection, schedule: Q01DX009 (ip), vehicle: Klucel (hydroxypropylcellulose) (HPC)
  T/C: 100 % of control

## COc1ccc(CCCC(=O)O)cc1OC
[1]
  T/C: 108 % of control
[2]
  T/C: 105 % of control
[3]
  T/C: 103 % of control

## c1ccc2c(c1)Sc1ccccc1N2CC1CCCN2CCCCC12 (stereo not given)
dose: 12.5 mg/kg/injection, schedule: Q01DX001 (ip), vehicle: Klucel (hydroxypropylcellulose) (HPC)
  T/C: 106 % of control
dose: 25.0 mg/kg/injection, schedule: Q01DX001 (ip), vehicle: Klucel (hydroxypropylcellulose) (HPC)
  T/C: 100 % of control
dose: 50.0 mg/kg/injection, schedule: Q01DX001 (ip), vehicle: Klucel (hydroxypropylcellulose) (HPC)
  T/C: 93 % of control

## COc1cccc(Sc2ccc([N+](=O)[O-])c3no[n+]([O-])c23)c1
dose: 30.0 mg/kg/injection, schedule: Q01DX009 (ip), vehicle: saline with Tween-80
  T/C: 102 % of control
dose: 60.0 mg/kg/injection, schedule: Q01DX009 (ip), vehicle: saline with Tween-80
  T/C: 115 % of control
